In patent US20250163104A1, “MACROCYCLIC IMMUNOMODULATORS” (priority 2021, published 2025) one finds IC50 data, which are given here for 14 compounds.

Where two headings read alike, the source gives them in different places. Where a SMILES comes first, the peptide text is derived from it. Bridges are numbered along the chain shown (N, C = ends). [ ]: non-standard residue; d: D form. The star is where a group is joined. Ala(morpholin-4-yl) = N[C@@H](CN1CCOCC1)C(=O)O; Phe(4-COOH) = N[C@@H](Cc1ccc(C(=O)O)cc1)C(=O)O; Phe(4-tBu) = CC(C)(C)c1ccc(C[C@H](N)C(=O)O)cc1; Bip = N[C@@H](Cc1ccc(-c2ccccc2)cc1)C(=O)O; Phe(3-Me) = Cc1cccc(C[C@H](N)C(=O)O)c1; Val(3-OH) = CC(C)(O)[C@H](N)C(=O)O; Hyp = O=C(O)[C@@H]1C[C@@H](O)CN1; 4Pal = N[C@@H](Cc1ccncc1)C(=O)O; Cha = N[C@@H](CC1CCCCC1)C(=O)O; Cit = NC(=O)NCCC[C@H](N)C(=O)O; Carboxymethyl = O=C(O)C*; Orn = NCCC[C@H](N)C(=O)O; Pra = C#CC[C@H](N)C(=O)O; Dab = NCC[C@H](N)C(=O)O; Dap = NC[C@H](N)C(=O)O

The target of this test is T1, human PD-1 / PD-L1-Ig binding on Jurkat cell line over-expressing human PD-1 (Jurkat-PD-1) (Homo sapiens, UniProt Q15116).
T1 construct: expressed in transfected cells; host or cells: Jurkat
The experiment in a line: Jurkat-PD-1 Cell Binding High-Content Screening Assay (CBA). The format is cell-based. To be noted: PE-labeled PD-L1-Ig 20 nM final. The procedure, abridged:
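Read-out: high-content imaging of PE-tagged PD-L1-Ig bound to Jurkat cells overexpressing human PD-1, after fixation with 4% paraformaldehyde and Hoechst 33342 nuclear staining. Ligand was used at 20 nM final for 1 hour, after a 2 h compound exposure at 37° C in serum-containing DMEM.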

[1] abbreviates: Jurkat-PD-1 cells, read-out: Jurkat HPD1_PDL1 IC50.

As usually defined, the IC50 is the concentration that inhibits the measured activity by half.

T1 sequence (Q15116 25-288): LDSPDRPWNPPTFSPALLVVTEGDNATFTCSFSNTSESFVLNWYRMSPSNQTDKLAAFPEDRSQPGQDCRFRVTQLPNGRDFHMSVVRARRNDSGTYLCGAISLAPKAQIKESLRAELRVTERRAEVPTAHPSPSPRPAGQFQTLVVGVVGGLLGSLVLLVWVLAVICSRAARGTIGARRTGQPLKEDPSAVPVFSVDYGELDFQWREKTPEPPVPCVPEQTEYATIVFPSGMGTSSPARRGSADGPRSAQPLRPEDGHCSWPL

For the compound `CC(C)C[C@@H]1NC(=O)[C@H](Cc2c[nH]c3ccccc23)NC(=O)[C@H](CC(=O)O)NC(=O)[C@H](Cc2ccc(OCC(=O)O)cc2)NC(=O)[C@H](CN)NC(=O)CSC[C@@H](C(=O)NCC(N)=O)NC(=O)[C@H](CO)NC(=O)[C@H](C(C)C)NC(=O)[C@H](CC2CCCCC2)NC(=O)[C@H](CC(N)=O)NC(=O)[C@@H](CC(C)C)NC(=O)[C@H](CN)NC(=O)[C@H](C(C)C)NC(=O)[C@H](Cc2ccc(-c3ccccc3)cc2)NC1=O` [Compound 1394] ({CH2CO}-[Dap]Y(Carboxymethyl)DWL[Bip]V[Dap][dL]N[Cha]VSCG-NH2; thioether N-14), where the note is “Jurkat HPD1_PDL1 IC50, Jurkat-PD-1 cells”, the IC50 worked out at 7.6 nM. As for `CCCC[C@H]1NC(=O)[C@H](CCCN)NC(=O)[C@H](CCCNC(N)=O)NC(=O)[C@H](Cc2ccc(-c3ccccc3)cc2)NC(=O)[C@H](C(C)C)NC(=O)[C@H](Cc2c[nH]c3ccccc23)NC(=O)[C@H](CC(=O)O)NC(=O)[C@H](Cc2ccc(OCC(=O)O)cc2)NC(=O)[C@H](Cc2ccncc2)NC(=O)CSC[C@@H](C(=O)N[C@@H](C)C(N)=O)NC(=O)[C@H]([C@@H](C)O)NC(=O)[C@H](C(C)C)NC(=O)[C@H](CC2CCCCC2)NC(=O)[C@H](CCN)NC1=O` [Compound 1701], the IC50 under setting [1] was found to be 24.5 nM.

With `Cc1cccc(C[C@@H]2NC(=O)[C@H](CC(=O)O)NC(=O)[C@H](Cc3ccc(OCC(=O)O)cc3)NC(=O)[C@@H]3C[C@@H](O)CN3C(=O)CSC[C@@H](C(=O)N[C@@H](CCN)C(N)=O)NC(=O)[C@H](CO)NC(=O)[C@H](C(C)(C)O)NC(=O)[C@H](CC3CCCCC3)NC(=O)[C@H](CCN)NC(=O)[C@@H](CC(C)C)NC(=O)[C@H](CCCN)NC(=O)[C@H](Cc3ccc(OCC(=O)O)cc3)NC(=O)[C@H](Cc3ccc(-c4ccccc4)cc3)NC(=O)[C@H](Cc3ccc(OCC(=O)O)cc3)NC2=O)c1` [Compound 2059] ({CH2CO}-[Hyp]Y(Carboxymethyl)D[Phe(3-Me)]Y(Carboxymethyl)[Bip]Y(Carboxymethyl)[Orn][dL][Dab][Cha][Val(3-OH)]SC[Dab]-NH2; thioether N-14), under setting [1], the IC50 was determined as 356 nM.

On to `CC(C)C[C@H]1NC(=O)[C@H](CCCN)NC(=O)[C@H](CCCNC(N)=O)NC(=O)[C@H](Cc2ccc(-c3ccccc3)cc2)NC(=O)[C@H](C(C)C)NC(=O)[C@H](Cc2c[nH]c3ccccc23)NC(=O)[C@H](CC(=O)O)NC(=O)[C@H](Cc2ccc(OCC(=O)O)cc2)NC(=O)[C@H](CN)NC(=O)CSC[C@@H](C(=O)N[C@@H](C)C(N)=O)NC(=O)[C@H]([C@@H](C)O)NC(=O)[C@H](C(C)C)NC(=O)[C@H](Cc2ccncc2)NC(=O)[C@H](CCN)NC1=O` [Compound 1345] ({CH2CO}-[Dap]Y(Carboxymethyl)DWV[Bip][Cit][Orn][dL][Dab][4Pal]VTCA-NH2; thioether N-14), for which the half-maximal inhibitory concentration (IC50) under setting [1] came to 236 nM. As for `CC(C)C[C@H]1NC(=O)[C@H](CCCN)NC(=O)[C@H](CCCNC(N)=O)NC(=O)[C@H](Cc2ccc(-c3ccccc3)cc2)NC(=O)[C@H](C(C)C)NC(=O)[C@H](Cc2c[nH]c3ccccc23)NC(=O)[C@H](CC(=O)O)NC(=O)[C@H](Cc2ccc(C(C)(C)C)cc2)NC(=O)[C@H](CN)NC(=O)CSC[C@@H](C(=O)N[C@@H](C)C(N)=O)NC(=O)[C@H]([C@@H](C)O)NC(=O)[C@H](C(C)C)NC(=O)[C@H](CC2CCCCC2)NC(=O)[C@H](CCN)NC1=O` [Compound 2106] ({CH2CO}-[Dap][Phe(4-tBu)]DWV[Bip][Cit][Orn][dL][Dab][Cha]VTCA-NH2; thioether N-14), the IC50 under setting [1] came out at 93.4 nM.

`CCC(C)[C@@H]1NC(=O)[C@H](Cc2ccc(-c3ccccc3)cc2)NC(=O)[C@H](C(C)C)NC(=O)[C@H](Cc2cccc(C)c2)NC(=O)[C@H](CC(=O)O)NC(=O)[C@H](Cc2ccc(-c3cccc(C(=O)O)c3)cc2)NC(=O)[C@H](Cc2ccncc2)NC(=O)CSC[C@@H](C(=O)N[C@@H](C)C(N)=O)NC(=O)[C@H]([C@@H](C)O)NC(=O)[C@H](C(C)C)NC(=O)[C@H](CC2CCCCC2)NC(=O)[C@H](CCN)NC(=O)[C@@H](CC(C)C)NC(=O)[C@H](CCCN)NC1=O` (some centres unmarked) [Compound 2226]: the IC50 under setting [1] came out at 25.4 nM. On to `Cc1cccc(C[C@@H]2NC(=O)[C@H](CC(=O)O)NC(=O)[C@H](Cc3ccc(C(=O)O)cc3)NC(=O)[C@H](Cc3ccncc3)NC(=O)CSC[C@@H](C(=O)N[C@@H](CCN)C(N)=O)NC(=O)[C@H]([C@@H](C)O)NC(=O)[C@H](C(C)C)NC(=O)[C@H](CC3CCCCC3)NC(=O)[C@H](CCN)NC(=O)[C@@H](CC(C)C)NC(=O)[C@H](CCCN)NC(=O)[C@H](Cc3ccc(OCC(=O)O)cc3)NC(=O)[C@H](Cc3ccc(-c4ccccc4)cc3)NC(=O)[C@H](Cc3ccc(OCC(=O)O)cc3)NC2=O)c1` [Compound 2306] ({CH2CO}-[4Pal][Phe(4-COOH)]D[Phe(3-Me)]Y(Carboxymethyl)[Bip]Y(Carboxymethyl)[Orn][dL][Dab][Cha]VTC[Dab]-NH2; thioether N-14), for which the IC50 under setting [1] is 7.1 nM. Turning to `CC[C@H](C)[C@@H]1NC(=O)[C@H](Cc2ccc(-c3ccccc3)cc2)NC(=O)[C@H](C(C)C)NC(=O)[C@H](Cc2c[nH]c3ccccc23)NC(=O)[C@H](CC(=O)O)NC(=O)[C@H](Cc2ccc(O)cc2)NC(=O)[C@H](CC(N)=O)NC(=O)CSC[C@@H](C(=O)N[C@@H](C)C(N)=O)NC(=O)[C@H]([C@@H](C)O)NC(=O)[C@H](C(C)C)NC(=O)[C@H](CC(C)C)NC(=O)[C@H](CCN)NC(=O)[C@@H](CC(C)C)NC(=O)[C@H](CCCCN)NC1=O` [Compound 1039] ({CH2CO}-NYDWV[Bip]IK[dL][Dab]LVTCA-NH2; thioether N-14), the IC50 under setting [1] was 12.1 nM. On the same count and under the same terms, next, `Cc1cccc(C[C@@H]2NC(=O)[C@H](CC(=O)O)NC(=O)[C@H](Cc3ccc(OCC(=O)O)cc3)NC(=O)[C@H](Cc3ccncc3)NC(=O)CSC[C@@H](C(=O)N[C@@H](CCN)C(N)=O)NC(=O)[C@H](CO)NC(=O)[C@H](C(C)(C)O)NC(=O)[C@H](CC3CCCCC3)NC(=O)[C@H](Cc3cnc[nH]3)NC(=O)[C@@H](CC(C)C)NC(=O)[C@H](CCCN)NC(=O)[C@H](Cc3ccc(OCC(=O)O)cc3)NC(=O)[C@H](Cc3ccc(-c4ccccc4)cc3)NC(=O)[C@H](Cc3ccc(OCC(=O)O)cc3)NC2=O)c1` [Compound 2645] ({CH2CO}-[4Pal]Y(Carboxymethyl)D[Phe(3-Me)]Y(Carboxymethyl)[Bip]Y(Carboxymethyl)[Orn][dL]H[Cha][Val(3-OH)]SC[Dab]-NH2; thioether N-14): 11.7 nM. On the same count and under the same terms, next, `CC(C)C[C@H]1NC(=O)[C@H](CCCN)NC(=O)[C@H](CCCNC(N)=O)NC(=O)[C@H](Cc2ccc(-c3ccccc3)cc2)NC(=O)[C@H](C(C)C)NC(=O)[C@H](Cc2c[nH]c3ccccc23)NC(=O)[C@H](CC(=O)O)NC(=O)[C@H](CCc2ccncc2)NC(=O)[C@H](CN)NC(=O)CSC[C@@H](C(=O)N[C@@H](C)C(N)=O)NC(=O)[C@H]([C@@H](C)O)NC(=O)[C@H](C(C)C)NC(=O)[C@H](CC2CCCCC2)NC(=O)[C@H](CCN)NC1=O` [Compound 2104]: 18.2 nM; `C#CC[C@H](NC(=O)[C@H](CCN)NC(=O)[C@@H]1CSCC(=O)N[C@@H](CN2CCOCC2)C(=O)N[C@@H](Cc2ccc(OCC(=O)O)cc2)C(=O)N[C@@H](CC(=O)O)C(=O)N[C@@H](Cc2cccc(C)c2)C(=O)N[C@@H](Cc2ccc(OCC(=O)O)cc2)C(=O)N[C@@H](Cc2ccc(-c3ccccc3)cc2)C(=O)N[C@@H](Cc2ccc(OCC(=O)O)cc2)C(=O)N[C@@H](CCCN)C(=O)N[C@H](CC(C)C)C(=O)N[C@@H](CCN)C(=O)N[C@@H](CC2CCCCC2)C(=O)N[C@@H](C(C)C)C(=O)N[C@@H](CCC(=O)O)C(=O)N1)C(=O)O` [Compound 1827] ({CH2CO}-[Ala(morpholin-4-yl)]Y(Carboxymethyl)D[Phe(3-Me)]Y(Carboxymethyl)[Bip]Y(Carboxymethyl)[Orn][dL][Dab][Cha]VEC[Dab][Pra]-OH; thioether N-14): 9.4 nM. The same measure, in the same setting: to `CCC(C)[C@@H]1NC(=O)[C@H](Cc2ccc(-c3ccccc3)cc2)NC(=O)[C@H](C(C)C)NC(=O)[C@H](Cc2cc(C)ccc2C)NC(=O)[C@H](CC(=O)O)NC(=O)[C@H](Cc2ccc(OCC(=O)O)cc2)NC(=O)[C@H](CN)NC(=O)CSC[C@@H](C(=O)N[C@@H](C)C(N)=O)NC(=O)[C@H]([C@@H](C)O)NC(=O)[C@H](C(C)C)NC(=O)[C@H](CC2CCCCC2)NC(=O)[C@H](CCN)NC(=O)[C@@H](CC(C)C)NC(=O)[C@H](CCCN)NC1=O` (some centres unmarked) [Compound 2241] belongs 32.4 nM; to `CCCC[C@H]1NC(=O)[C@H](CCCN)NC(=O)[C@H]([C@@H](C)CC)NC(=O)[C@H](Cc2ccc(-c3ccccc3)cc2)NC(=O)[C@H](C(C)C)NC(=O)[C@H](Cc2c[nH]c3ccccc23)NC(=O)[C@H](CC(=O)O)NC(=O)[C@H](Cc2ccc(OCC(=O)O)cc2)NC(=O)[C@H](CN)NC(=O)CSC[C@@H](C(=O)N[C@@H](C)C(N)=O)NC(=O)[C@H]([C@@H](C)O)NC(=O)[C@H](C(C)C)NC(=O)[C@H](CC2CCCCC2)NC(=O)[C@H](CCN)NC1=O` [Compound 1708], 23 nM.

With `C#CC[C@H](NC(=O)[C@H](CCN)NC(=O)[C@@H]1CSCC(=O)N[C@@H](CC(C)C)C(=O)N[C@@H](Cc2ccc(C(=O)O)cc2)C(=O)N[C@@H](CC(=O)O)C(=O)N[C@@H](Cc2cccc(C)c2)C(=O)N[C@@H](Cc2ccc(C(=O)O)cc2)C(=O)N[C@@H](Cc2ccc(-c3ccccc3)cc2)C(=O)N[C@@H](Cc2ccc(C(=O)O)cc2)C(=O)N[C@@H](CCCN)C(=O)N[C@H](CC(C)C)C(=O)N[C@@H](CCN)C(=O)N[C@@H](CC2CCCCC2)C(=O)N[C@@H](C(C)C)C(=O)N[C@@H](CCC(=O)O)C(=O)N1)C(=O)O` [Compound 2706] ({CH2CO}-L[Phe(4-COOH)]D[Phe(3-Me)][Phe(4-COOH)][Bip][Phe(4-COOH)][Orn][dL][Dab][Cha]VEC[Dab][Pra]-OH; thioether N-14), under setting [1], the IC50 was determined as 2.4 nM.
